Measured values from patent publication US11185527B2, “Methods and compositions relating to steroid hormone receptor-dependent cancers” (Wayne State University, priority 2017, dated 2021).

How the values were obtained:
[1] = test system: AR target genes in 22Rv1 CRPC cells; assay: Real time RT-PCR of AR target gene mRNAs in 22Rv1 cells; format: cell-based, human; conditions: 22Rv1, 10 μM, 72h
Experimental: FIG. 3D is a graph showing that in 22Rv1 cells were treated with 10 μM of KCI807 for 72h and real time RT-PCR was used to measure mRNAs for the indicated panel of genes tested in FIG. 3B and FIG. 3C.
Total RNA was isolated from cells using the RNeasy Mini Kit (Qiagen). Reverse transcription PCR was then performed using 500 ng of total RNA with random primers and using the high-capacity complementary DNA Archive kit (Applied Biosystems). The complementary DNA from this reaction was measured using quantitative real time PCR using the StepONE Plus Real Time PCR system (Life Technologies Corporation, Carlsbad, Calif.). All reactions were performed in triplicate and normalized to glyceraldehyde-3-phosphate-dehydrogenase values in the same samples. All primers and Taqman probes were purchased from the applied Biosystems inventory (Invitrogen)
To test the selectivity of KCI807 for ELK1-dependent gene activation by AR vs. other target genes of the receptor, 22Rv1 CRPC cells, which are dependent on both full length AR and AR-V7 for hormone-independent growth, were used. […]

[2] = male, SCID, mouse, in vivo, ip, 250 mg/kg, 6 h
[3] = mouse, in vivo
[4] = test system: ARE-dependent promoter activation by AR; assay: Counter screening assay: ARE-luciferase reporter in recombinant HeLa cells expressing AR; format: cell-based, human; conditions: testosterone-treated recombinant HeLa cells
From the text: FIG. 6B is a schematic diagram of the reporter system for the counter screening assay. Recombinant HeLa cells used in this assay are identical to the primary screening cells except for the absence of Gal4-ELK1 and substitution of the Gal4 elements in the promoter with a canonical ARE. In this case, testosterone causes cytosolic AR to translocate to the nucleus and bind to the ARE in the promoter resulting in activation of the luciferase reporter.
The cells generated for counter screening, are HeLa cells stably transduced with a lentiviral plasmid construct containing a minimal promoter-luciferase reporter and an upstream androgen response element (ARE) sequence. These HeLa cells were also transduced with a lentiviral expression plasmid encoding the full-length AR. These lentiviral constructs were made as follows. Custom synthesized PCR primers were used to amplify and clone the ARE sequence from a pG5luc plasmid construct containing an ARE sequence element into the pGreenFire1 ™-mCMV-EF1-Neo (Plasmid) at SpeI (upstream) and BamHI (downstream) sites. pG5luc Vector is well known and the complete sequence has NCBI accession #AF264724. The ARE containing pG5luc plasmid is described in detail in Patki et al., 2013, J Biol Chem, 288:11047-11065. The lentiviral vector expressing ARE-luciferase reporter was then packaged in lentivirus and parental HeLa cells were infected as described below under the heading “Lentivirus-mediated-Transduction.” After 72h of infection, 400 ug/mL of Geneticin was added to the culture medium to select for the transduced cells. These cells were then infected with the lentivirus containing the full length AR expression plasmid described above. After 72h of infection, 2 ug/mL of Puromycin was added to the culture medium to select for the transduced cells. Clonal cells harboring both the ARE-promoter-luciferase reporter and also stably expressing AR were then isolated using cloning cylinders as described above. The selected clones were further expanded and then tested for luciferase induction by testosterone. The clone that gave the greatest luciferase signal to noise ratio in response to testosterone treatment was then chosen for use in the counter screening assay for high throughput small molecule screening. All of the plasmid constructs generated above were sequenced to verify DNA sequences before, the constructs were used.
For high throughput screening, recombinant primary screening cells were first depleted of hormone by growing them for 24h in medium in which the serum used was heat-inactivated and charcoal-stripped. The cells were then plated in 384-well white flat bottom plates (5,000 cells/well) (Corning Product #3570) using a Multidrop (Thermo Fisher Scientific, Waltham, Mass.). […]

[5] = Body weight and condition of mice in the 22Rv1 xenograft study; conditions: 22Rv1 study

Row | Compound | effect on mRNA of AR target genes [1] | plasma level of unmetabolized compound (median), Day 11 [2] [nM] | plasma level of unmetabolized compound (median), Day 19 [2] [nM] | symptoms during the study, 22Rv1 xenograft [3] | weight loss (in words), 22Rv1 xenograft [3] | inhibition of ARE-dependent promoter activation by AR (in words) [4] | % body weight lost/gained ([5]; Day 0 after tumor implantation) [%] | % body weight lost/gained ([5]; Day 6 after tumor implantation) | % body weight lost/gained ([5]; Day 11 after tumor implantation) | % body weight lost/gained ([5]; Day 14 after tumor implantation) | % body weight lost/gained ([5]; Day 17 after tumor implantation) | % body weight lost/gained ([5]; Day 20 after tumor implantation) | % body weight lost/gained ([5]; Day 24 after tumor implantation) | % body weight lost/gained ([5]; Day 25 after tumor implantation)
1 | O=c1cc(-c2cccc(O)c2)oc2cccc(O)c12 [KCI807, 5,3′-dihydroxyflavone] | decreased expression of only the genes known to be supported synergistically by ELK1 and AR | 387 | 70 | asymptomatic | did not show appreciable weight loss | – | – | – | – | – | – | – | – | –
2 | CNC(=O)c1ccc(N2C(=S)N(c3ccc(C#N)c(C(F)(F)F)c3)C(=O)C2(C)C)cc1F [enzalutamide] | – | – | – | – | – | completely suppressed the signal | 0 | +3.7% | +5.5% | +3.7% | +4.6% | +4.6% | +4.6% | +3.7%
